Data published in patent US9144573B2, “Prostaglandin transporter inhibitors” (Albert Einstein College of Medicine of Yeshiva University, priority 2006, dated 2015).
Entries after “also recorded” stand apart in the source; their conditions may differ.

Legend:
[1] = biological target: T1, prostaglandin transporter (PGT) (Rattus norvegicus, UniProt Q00910); experiment: PGE2 uptake by MDCK cells stably expressing PGT; format: cell-based
T1 construct: GFP; expressed in transfected cells
Protocol: MDCK or 3T3 cells were seeded at 15-20% confluence on 24-well plates. The day on which the cells were seeded was considered day 1. PGE2 uptake experiments were conducted on day 4. All of the PGE2 uptake experiments were conducted at room temperature. On day 4, cells were washed twice with Waymouth buffer (135 mM NaCl, 13 mM H-Hepes, 13 mM Na-Hepes, 2.5 mM CaCl2, 1.2 mM MgCl2, 0.8 mM MgSO4, 5 mM KCl, and 28 mM D-glucose). Then 200 μL of Waymouth buffer containing [^3H]PGE2 was added to each well. At the designated time, the uptake of [^3H]PGE2 was stopped by aspiration of uptake buffer; this was followed by immediate washing twice with 500 μL of chilled Waymouth buffer. Cells were then lysed with 100 μL lysis buffer containing 0.25% SDS and 0.05 N NaOH. 1.5 mL of scintillation solution was added to each well, and intracellular [^3H]PGE2 was counted by MicroBeta Counter.
For preliminary screening of the compounds, 25 μL of Waymouth buffer containing small organic compounds were added to each well; this was immediately followed by the addition of 175 μL of Waymouth buffer containing [^3H]PGE2. In each well, the total volume of uptake medium was 200 μL. Organic compounds were first dissolved in DMSO and then diluted in Waymouth buffer. The percent inhibition of [^3H]PGE2 uptake by compounds was calculated as [(uptakevehicle−uptakeinhibitor)÷(uptakevehicle)]×100.
The initial velocities at various initial extracellular concentrations of PGE2 were determined from the PGE2 uptake in the first 2 minutes; these were linear over the time course of PGE2 uptake. Ki values were obtained by curve fitting the reciprocal of initial velocities of PGE2 uptake versus the reciprocal of extracellular PGE2 concentrations at various concentrations of the inhibitors. At low PGE2 concentrations, the extracellular concentrations were taken as ^3H labeled PGE2, which has a specific activity of 500 μCi/mol. At high concentrations of PGE2, a mixture of ^3H labeled and unlabeled PGE2 was made to a final specific activity of 25 μCi/mol.

[2] = In vivo test of acute T26A toxicity; parameters: species or system mice; conditions: 100 uL intraperitoneal
Protocol: All mice were male. They received one intraperitoneal injection. The injected volume was 100 uL to all of them, 14 hours after injection, they were all alive, and moved and acted normally.

[3] = Systemic BP after IV injection in anesthetized WKY and SHR rats; format: in vivo
Protocol: The effect of T26 IV injections on systemic BP in anesthetized rats of a control strain (WKY) and the Spontaneously Hypertensive Rat (SHR) strain was evaluated.

[4] = Endogenous PGE2 in circulating blood after jugular vein injection; format: in vivo, rats; conditions: 300 μL of 1 mM, blood 10 minutes later
Protocol: Either 300 μL vehicle (4% DMSO and 4% cremophor in water) or 300 μL of 1 mM T26A was injected into the jugular vein of anesthetized rats (300-325 g weight). One mL of blood was obtained from the carotid artery 10 minutes later, PGE2 in blood samples was measured using PGE2 EIA kit from Caymanchem. […] This finding is consistent with the model advanced in Example 2 (FIG. 8). Since PGT transports PGE2 into the cell, inhibiting PGT would be expected to inhibit removal of PGE2 from blood to be internalized and degraded.

[5] = Degradation of exogenously-administered PGE2; format: in vivo, rats; conditions: 300 μL of 1 mM IV, PGE2 injected ten minutes later
Protocol: Either 300 μL vehicle (4% DMSO and 4% cremophor in water) or 300 μL of 1 mM T26A was injected into the jugular vein of anesthetized rats (300-325 g weight). Ten minutes later 100 μL of 1 ng/μL PGE2 was injected. One mL blood was withdrawn from the carotid artery at 1, 3, 5, and 10 min after PGE2 injection. PGE2 in blood samples was measured using PGE2 EIA kit from Caymanchem. […] This is also consistent with the FIG. 8 model. Inhibiting PGE2 transport into the cell reduces its intracellular degradation.

[6] = Chronic oral administration in drinking water: blood PGE2, urine PGE2, bleeding time; format: in vivo, mice; conditions: 2 mM in drinking water, 16 days
Protocol: Regular water, vehicle (2% DMSO and 2% cremophor) in drinking water, or 2 mM T26A in drinking water was administered to 17 week old mice for 16 days. At the end of the experiment, we withdrew blood by cardiac puncture. PGE2 in blood samples was measured by using PGE2 EIA kit from Caymanchem.
The mice described above pertaining to FIG. 17 were placed in metabolic cages. Six days after they adjusted to the caged condition (on regular diet and water) regular drinking water, vehicle (2% DMSO and 2% cremophor) in drinking water, or 2 mM T26A in drinking water was administered for 16 days. Urine was collected daily. PGE2 in urine samples was measured using PGE2 EIA kit from Caymanchem. […] This is also consistent with the FIG. 8 model. Inhibiting PGE2 transport into the cell reduces its intracellular degradation such that more is secreted without intracellular degradation.
At the end of the experiment shown in FIGS. 17-18, bleeding time was measured using the tail cut method. About 1 cm tails of restrained mice were cut off; the diameter of the cut was kept the same for all mice. The emerging blood was blotted every 15 seconds without touching the wound. Bleeding time was measured as the point at which bleeding had stopped for 1 minute. Results are shown graphically in FIG. 19. […] It is believed that the blockade of endothelial PCT allows intravascular accumulation of PGE2 or prostacyclin, either of which can inhibit platelet aggregation.

[7] = Chronic oral tolerability: metabolic cages and post-mortem H&E histology; format: in vivo, mice; conditions: for pathological damage to the gastrointestinal tract: H&E stained tissues
Protocol: The mice described in FIGS. 17-19 were studied in metabolic cages. Six days after they adjusted to the caged condition on regular diet and water, regular drinking water, or vehicle (2% DMSO and 2% cremophor) in drinking water, or 2 mM T26A in drinking water was administered for 16 days. Their water and food intake, weight body and urine volume were recorded daily. Results are shown graphically in FIG. 20.
FIG. 21 provides results of post-mortem studies on the mice of FIGS. 17-19 administered either regular drinking water, or vehicle (2% DMSO and 2% cremophor) in drinking water, or 2 mM T26A in drinking water for 16 days. At the end of experiments, we isolated tissues from the mice and made H&E stained slides of tissues and examined the tissues microscopically.

[8] = 2 mM in drinking water, 16 days

[N-]=[N+]=NCCOCCOCCNC(=O)c1ccc(Nc2nc(NCCOCCOCCNC(=O)c3ccccc3)nc(Nc3ccc(O)cc3)n2)cc1 [T26A]
Ki ([1]; Example 2): 0.3 µM
inhibition at 5 µM ([1]; MDCK, read-out: % Inhib. at 5 μM): 92%
Ki ([1]; Table 2): 0.38 µM
mode of inhibition ([1]; double reciprocal analysis): competitively inhibits
Condition ([2]; 6 mM, 3% DMSO, 3% Cremophor in water): Appeared normal.
Condition ([2]; 25 mM, 5% DMSO, 5% Cremophor in water): More actively than mice #1,; also recorded: More active than mice #1, #4
Condition ([2]; 250 mM in 100% DMSO): Rarely moved for the first
systemic blood pressure [3]: reduced the blood pressure of both rats
plasma PGE2 concentrations [4]: greater than two-fold increase; also recorded: increases endogenous PGE2
degradation of exogenously-administered PGE2 [5]: inhibited PGE2 degradation; also recorded: reduces the degradation
plasma PGE2 levels ([6]; mice): increased plasma PGE2 levels four-fold
urinary excretion of endogenous PGE2 ([6]; mice): increased urinary excretion of endogenous PGE2; also recorded: increases PGE2 excretion in urine
bleeding time ([6]; tail cut method): increases bleeding time
effects on water and food intake, body weight, daily urine volume [7, 8]: did not have any observable effects; also recorded: does not have any apparent effects
pathological damage to the gastrointestinal tract [7, 8]: did not cause any pathological damage
pathological damage to the gastrointestinal tract ([7]; 2 mM in drinking water, 16 days, listed as T26): does not cause any pathological damage
toxicity on chronic oral basis ([7]; doses sufficient to raise plasma and urinary PGE2): non-toxic
